Data from patent US20160089545A1, “METHODS AND APPARATUS FOR DELIVERY OF MOLECULES ACROSS LAYERS OF TISSUE” (EP Technologies LLC, priority 2013, published 2016).
Like-named read-outs stand apart in the source and are kept apart here.

Procedure: In this example, a vertical Franz diffusion apparatus (PermeGear Inc, PA) was used for all transport studies. Human skin samples with intact stratum corneum (SC) from back and thigh region were used, which were split thickness (dermatome 250 μm). The skin was kept at −80° C. until the day of treatment. On the day of treatment the skin was thawed to room temperature and kept in a humidified box for 1 hour. The skin was washed with water and pat-dried with paper towels. The skin was cut in to 1″×1″ pieces and was placed between the donor and receiver compartments with temperature maintained at 37±1° C. using water circulator. Effective surface area for transport studies were kept constant at 1.77 cm^2. The receiver compartment was filled with 10 mL of freshly prepared phosphate buffered saline (PBS) (pH 7.4) and donor compartment with 0.5-1.0 mL of permeant solution. One mL samples were withdrawn from the receiver compartment at pre-determined time points and estimated for propofol using high performance liquid chromatography.
In vitro permeation studies were carried out using the experimental setup described above. Drugs reconstituted in water or buffer at 10 mg/mL concentration in the donor compartment was used for transport studies across the human skin, Permeation studies were carried out for a period of 3-6 h and samples were analyzed for using HPLC technique.
In some experiments, the human skin was treated with non-thermal DBD plasma for periods of time up to about 1 min and the following plasma power source parameters were varied: the frequency (Hz) was varied between about 100 and about 3500 Hz, the voltage was varied from about 11 kV to 20 kV, the pulse duration was varied between about 1 and about 10 μs, the duty cycle was varied between about 1 to about 100%, and the time of treatment ranged from between about 0.5 to about 1 minutes. […] Three different runs were carried out, the first in which the plasma generator was operated with a frequency of 2500 Hz, pulse duration of 1 μs, voltage of 15 kV and 100% duty cycle (which corresponds to setting 7100 in FIG. 10), the second with the plasma generator operated with a frequency of 2500 Hz, pulse duration of 5 μs, voltage of 17 kV and 100% duty cycle (which corresponds to setting 7500 in FIG. 10), and the third with the plasma generator operated with frequency of 3500 Hz, pulse duration of 5 μs, voltage of 19 kV and 100% duty cycle (which corresponds to setting 9500 in FIG. 10). A fourth control run was also carried out in which the skin sample was not subjected to plasma treatment before being contacted with the nicotine-containing test formulation.

O=C(O)Cc1ccccc1Nc1c(Cl)cccc1Cl [diclofenac sodium]
factor of enhancement of transdermal delivery (human, 4 h, 10 mg/mL, pH 7.4): approximately 2
factor of enhancement of transdermal delivery (human, 4 h, pH 7.4): about 4

Cn1c(=O)c2c(ncn2C)n(C)c1=O [caffeine]
factor of enhancement of transdermal delivery as compared with the control (human, 4 h, 10 mg/mL, pH 7.4): approximately 7

CN1CCCC1c1cccnc1 (stereo not shown) [nicotine]
factor of enhancement of transdermal delivery as compared with the control (3 hour permeation period, 3500 Hz, pulse duration 5 μs, 19 kV, 100% duty cycle (setting 9500)): approximately 33
